Experimental data reported in publication PMC12172042, “Metabolic Activation versus Masked Prodrugs: Bisubstrate Mimic Inhibitors of CoaBC’s PPCS Activity in Mycobacterium tuberculosis and Staphylococcus aureus” (ACS Infectious Diseases, 2025).

Experiments:
SaCoaBC = molecular target: T1, SaCoaBC (Staphylococcus aureus, UniProt Q2G268); assay: coupled pyrophosphate assay with Morrison tight-binding fit; formed in situ from P-CJ and CTP; CD melting shift ~[…] °C; format: biochemical
T1 construct: gene coaBC
T1 sequence (Q2G268 entry or part of it): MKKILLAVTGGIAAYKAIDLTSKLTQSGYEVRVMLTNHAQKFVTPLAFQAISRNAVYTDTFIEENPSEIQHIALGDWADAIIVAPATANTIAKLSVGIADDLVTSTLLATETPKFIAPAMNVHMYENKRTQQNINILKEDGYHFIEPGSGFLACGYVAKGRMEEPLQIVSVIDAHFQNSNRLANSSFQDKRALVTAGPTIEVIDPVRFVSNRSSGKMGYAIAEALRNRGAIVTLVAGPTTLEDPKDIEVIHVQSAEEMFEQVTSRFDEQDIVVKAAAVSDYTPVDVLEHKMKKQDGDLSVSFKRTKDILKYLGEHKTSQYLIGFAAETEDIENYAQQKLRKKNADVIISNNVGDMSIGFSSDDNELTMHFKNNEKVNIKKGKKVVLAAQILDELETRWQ

MtCoaBC = molecular target: T2, MtCoaBC (Mycobacterium tuberculosis, UniProt P9WNZ1); assay: coupled pyrophosphate assay with Morrison tight-binding fit; formed in situ from P-CJ and CTP; CD melting shift […] °C; format: biochemical
T2 construct: gene coaBC
T2 sequence (P9WNZ1 whole entry): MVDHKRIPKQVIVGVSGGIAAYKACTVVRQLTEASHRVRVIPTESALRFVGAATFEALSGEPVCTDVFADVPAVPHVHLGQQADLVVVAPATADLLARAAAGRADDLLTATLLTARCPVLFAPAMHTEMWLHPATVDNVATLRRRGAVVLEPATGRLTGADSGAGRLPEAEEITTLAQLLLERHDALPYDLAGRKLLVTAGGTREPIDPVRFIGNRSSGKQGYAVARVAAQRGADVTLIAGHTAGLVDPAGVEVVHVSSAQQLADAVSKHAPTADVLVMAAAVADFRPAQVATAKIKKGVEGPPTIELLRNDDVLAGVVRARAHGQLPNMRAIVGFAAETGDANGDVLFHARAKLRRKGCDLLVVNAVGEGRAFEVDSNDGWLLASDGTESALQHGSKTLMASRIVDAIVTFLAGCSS

[1] = test system: CC(C)(COP(=O)(O)O)[C@@H](O)C(=O)NCCC(=O)O; assay: purified protein; conditions: CTP (MgCTP)

Compound | Ki (SaCoaBC) [nM] | Ki (MtCoaBC) [nM] | Km [1] [µM]
CC(C)(COP(=O)(O)O)[C@@H](O)C(=O)N/C=C/C(=O)OP(=O)(O)OC[C@H]1O[C@@H](n2ccc(N)nc2=O)[C@H](O)[C@@H]1O [compound 11, P-CJ-CMP] | 32.3 | 58.7 | 
MtCoaBC (Mycobacterium tuberculosis H37Rv) |  |  | 33.2 ± 4.2
